In patent publication US8680139B2 (Progenra, priority 2009, dated 2014) one finds EC50 data, which are given here for 37 compounds.

pEC50: −log10 of the molar value.

For the assay, the target named is T1, USP7 (Homo sapiens, UniProt Q93009).
T1 construct: full length human USP7 protein; made in house
T1 sequence (Q93009 whole entry): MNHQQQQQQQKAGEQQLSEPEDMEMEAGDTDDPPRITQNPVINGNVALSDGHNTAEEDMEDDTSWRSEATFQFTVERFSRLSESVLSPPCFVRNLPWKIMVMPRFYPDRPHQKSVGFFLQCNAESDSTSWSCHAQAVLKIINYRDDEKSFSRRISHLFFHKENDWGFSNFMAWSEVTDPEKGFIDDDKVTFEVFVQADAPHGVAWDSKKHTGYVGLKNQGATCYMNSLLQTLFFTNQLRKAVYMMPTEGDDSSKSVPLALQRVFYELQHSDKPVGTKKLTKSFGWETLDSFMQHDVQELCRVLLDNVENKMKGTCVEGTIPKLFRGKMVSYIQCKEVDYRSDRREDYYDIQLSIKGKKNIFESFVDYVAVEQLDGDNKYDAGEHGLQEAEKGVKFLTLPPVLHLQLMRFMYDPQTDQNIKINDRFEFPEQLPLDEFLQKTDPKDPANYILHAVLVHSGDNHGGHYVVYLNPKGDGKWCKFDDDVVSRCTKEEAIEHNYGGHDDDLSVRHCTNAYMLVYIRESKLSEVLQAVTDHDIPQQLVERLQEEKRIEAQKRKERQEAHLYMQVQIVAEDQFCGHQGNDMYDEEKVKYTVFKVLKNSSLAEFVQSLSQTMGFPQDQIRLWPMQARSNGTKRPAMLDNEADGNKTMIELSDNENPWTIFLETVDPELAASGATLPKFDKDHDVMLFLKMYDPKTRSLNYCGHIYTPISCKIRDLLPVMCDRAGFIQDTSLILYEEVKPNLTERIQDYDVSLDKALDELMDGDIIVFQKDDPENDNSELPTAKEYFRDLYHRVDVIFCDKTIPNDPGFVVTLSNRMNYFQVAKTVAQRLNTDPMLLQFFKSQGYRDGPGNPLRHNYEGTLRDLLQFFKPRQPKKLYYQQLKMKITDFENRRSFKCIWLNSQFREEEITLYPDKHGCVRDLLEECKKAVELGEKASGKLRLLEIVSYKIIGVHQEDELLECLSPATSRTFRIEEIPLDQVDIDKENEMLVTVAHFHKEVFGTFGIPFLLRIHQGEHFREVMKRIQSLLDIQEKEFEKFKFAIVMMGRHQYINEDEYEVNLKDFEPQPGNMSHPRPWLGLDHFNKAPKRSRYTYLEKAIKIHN
Put plainly: USP7, Ub-PLA2 assay. Type of assay: biochemical. The settings on record: Ub-PLA2 / NBD C6-HPC fluorescence, 30 minute preincubation; read-out: EC50 for inhibition of USP7. In a few lines: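 Activity read as fluorescence in a Ub-PLA2 format, with percent inhibition calculated within each plate against DMSO (uninhibited) and NEM (background) wells. Vehicle was 100% DMSO.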
By pEC50 is commonly meant the negative decadic logarithm of the EC50, by convention in mol/L. As for `O=C(NCCN1CCCCC1)c1cc([N+](=O)[O-])c(Sc2c(Cl)cncc2Cl)s1` [Example 161, 5-((3,5-dichloropyridin-4-yl)thio)-4-nitro-N-(2-(piperidin-1-yl)ethyl)thiophene-2-carboxamide], the pEC50 is ≥ 6.00.

Consider `O=C(Nc1c(Cl)cccc1Cl)c1cc([N+](=O)[O-])c(Sc2c(Cl)cncc2Cl)s1` [Example 135, N-(2,6-dichlorophenyl)-5-((3,5-dichloropyridin-4-yl)thio)-4-nitrothiophene-2-carboxamide], for which the pEC50 is ≥ 6.00.

For `COc1cccc(CNC(=O)c2cc([N+](=O)[O-])c(Sc3c(Cl)cncc3Cl)s2)c1` [Example 99, 5-((3,5-dichloropyridin-4-yl)thio)-N-(3-methoxybenzyl)-4-nitrothiophene-2-carboxamide], the pEC50 is ≥ 6.00.

As to `CN(C)C(=O)c1cc([N+](=O)[O-])c(Sc2c(Cl)cncc2Cl)s1` [Example 49, 5-[(3,5-dichloro-4-pyridyl)sulfanyl]-N,N-dimethyl-4-nitro-thiophene-2-carboxamide], the pEC50 is 5.00 to 6.00.

On to `CN1CCN(C(=O)CNC(=O)c2cc([N+](=O)[O-])c(Sc3c(Cl)cncc3Cl)s2)CC1` [Example 218, 5-((3,5-dichloropyridin-4-yl)thio)-N-(2-(4-methylpiperazin-1-yl)-2-oxoethyl)-4-nitrothiophene-2-carboxamide], for which the pEC50 is 5.00 to 6.00.

Regarding `CC(=O)N1CCC(NC(=O)c2cc([N+](=O)[O-])c(Sc3c(Cl)cncc3Cl)s2)CC1` [Example 232, N-(1-acetylpiperidin-4-yl)-5-((3,5-dichloropyridin-4-yl)thio)-4-nitrothiophene-2-carboxamide], the pEC50 is 5.00 to 6.00.

`O=C(NCc1cccc(F)c1)c1cc([N+](=O)[O-])c(Sc2c(Cl)cncc2Cl)s1` [Example 128, 5-((3,5-dichloropyridin-4-yl)thio)-N-(3-fluorobenzyl)-4-nitrothiophene-2-carboxamide]: the negative logarithm of the EC50 (pEC50) was ≥ 6.00.

For `CN(C)c1ccc(CNC(=O)c2cc([N+](=O)[O-])c(Sc3c(Cl)cncc3Cl)s2)cc1` [Example 121, 5-((3,5-dichloropyridin-4-yl)thio)-N-(4-(dimethylamino)benzyl)-4-nitrothiophene-2-carboxamide], the pEC50 was ≥ 6.00.

Turning to `O=C(NCC(=O)N1CCCCC1)c1cc([N+](=O)[O-])c(Sc2c(Cl)cncc2Cl)s1` [Example 221, 5-((3,5-dichloropyridin-4-yl)thio)-4-nitro-N-(2-oxo-2-(piperidin-1-yl)ethyl)thiophene-2-carboxamide], the pEC50 was 5.00 to 6.00.

Take `CC(=O)c1cc([N+](=O)[O-])c(Sc2c(F)c(F)cc(F)c2F)s1` [Example 36, 1-[4-nitro-5-(2,3,5,6-tetrafluorophenyl)sulfanyl-2-thienyl]ethanone]: the pEC50 was 5.00 to 6.00.

As for `O=C(Nc1ccc(Br)cc1)c1cc([N+](=O)[O-])c(Sc2c(Cl)cncc2Cl)s1` [Example 152, N-(4-bromophenyl)-5-((3,5-dichloropyridin-4-yl)thio)-4-nitrothiophene-2-carboxamide], the negative-log EC50 (pEC50) was ≥ 6.00.

As for `O=C(NC1CCCNC1=O)c1cc([N+](=O)[O-])c(Sc2c(Cl)cncc2Cl)s1` (stereo not shown) [Example 95, 5-((3,5-dichloropyridin-4-yl)thio)-4-nitro-N-(2-oxopiperidin-3-yl)thiophene-2-carboxamide], the pEC50 is 5.00 to 6.00.

Consider `CC(=O)c1cc([N+](=O)[O-])c(Sc2cnc3ccccc3n2)s1` [Example 37, 1-(4-nitro-5-quinoxalin-2-ylsulfanyl-2-thienyl)ethanone], for which the pEC50 is 5.00 to 6.00.

For the compound `CN1CCC(NS(=O)(=O)c2cc([N+](=O)[O-])c(Sc3c(Cl)cncc3Cl)s2)CC1` [Example 246, 5-((3,5-dichloropyridin-4-yl)thio)-N-(1-methylpiperidin-4-yl)-4-nitrothiophene-2-sulfonamide], the pEC50 is 5.00 to 6.00.

For the compound `CN(C)CCNC(=O)CNC(=O)c1cc([N+](=O)[O-])c(Sc2c(Cl)cncc2Cl)s1` [Example 217, 5-((3,5-dichloropyridin-4-yl)thio)-N-(2-((2-(dimethylamino)ethyl)amino)-2-oxoethyl)-4-nitrothiophene-2-carboxamide], the negative logarithm of the EC50 (pEC50) is 5.00 to 6.00.

`CC(=O)c1cc([N+](=O)[O-])c(Sc2c(Cl)c[n+]([O-])cc2Cl)s1` [Example 18, 1-[5-(3,5-dichloro-1-oxido-pyridin-1-ium-4-yl)sulfanyl-4-nitro-2-thienyl]ethanone]: the pEC50 is 5.00 to 6.00.

On to `O=C(Nc1ccc(F)c(C(F)(F)F)c1)c1cc([N+](=O)[O-])c(Sc2c(Cl)cncc2Cl)s1` [Example 140, 5-((3,5-dichloropyridin-4-yl)thio)-N-(4-fluoro-3-(trifluoromethyl)phenyl)-4-nitrothiophene-2-carboxamid], for which the pEC50 was ≥ 6.00.

For the compound `CN(C)c1cccc(CNC(=O)c2cc([N+](=O)[O-])c(Sc3c(Cl)cncc3Cl)s2)c1` [Example 146, 5-((3,5-dichloropyridin-4-yl)thio)-N-(3-(dimethylamino)benzyl)-4-nitrothiophene-2-carboxamide], the pEC50 was ≥ 6.00.

With `CNC(C)c1cc([N+](=O)[O-])c(Sc2ccc(Cl)cc2Cl)s1` (stereo not shown) [Example 28, 1-[5-(2,4-dichlorophenyl)sulfanyl-4-nitro-2-thienyl]-N-methyl-ethanamine], the pEC50 was < 5.00.

`O=C(NC1CCNC1)c1cc([N+](=O)[O-])c(Sc2c(Cl)cncc2Cl)s1` (stereo not shown) [Example 195, 5-((3,5-dichloropyridin-4-yl)thio)-4-nitro-N-(pyrrolidin-3-yl)thiophene-2-carboxamide]: the negative-log EC50 (pEC50) is ≥ 6.00.

Consider `COCCCNC(=O)c1cc([N+](=O)[O-])c(Sc2c(Cl)cncc2Cl)s1` [Example 119, 5-((3,5-dichloropyridin-4-yl)thio)-N-(3-methoxypropyl)-4-nitrothiophene-2-carboxamide], for which the pEC50 was ≥ 6.00.

On to `O=C1COc2ccc(Sc3sc(C(=O)Nc4cc(C5CC5)n[nH]4)cc3[N+](=O)[O-])cc2N1` [Example 248, N-(3-cyclopropyl-1H-pyrazol-5-yl)-4-nitro-5-((3-oxo-3,4-dihydro-2H-benzo[b][1,4]oxazin-6-yl)thio)thiophene-2-carboxamide], for which the pEC50 is 5.00 to 6.00.

In the case of `CC(=O)c1cc([N+](=O)[O-])c(Sc2nccs2)s1` [Example 14, 1-(4-nitro-5-thiazol-2-ylsulfanyl-2-thienyl)ethanone], the pEC50 is < 5.00.

Take `CN1CCN(c2ccc(NC(=O)c3cc([N+](=O)[O-])c(Sc4c(Cl)cncc4Cl)s3)cc2)CC1` [Example 79, 5-((3,5-dichloropyridin-4-yl)thio)-N-(4-(4-methylpiperazin-1-yl)phenyl)-4-nitrothiophene-2-carboxamide]: the negative-log EC50 (pEC50) is 5.00 to 6.00.

Regarding `CC(C)N1CCC(NC(=O)c2cc([N+](=O)[O-])c(Sc3c(Cl)cncc3Cl)s2)CC1` [Example 187, 5-((3,5-dichloropyridin-4-yl)thio)-N-(1-isopropylpiperidin-4-yl)-4-nitrothiophene-2-carboxamide], the pEC50 was ≥ 6.00.

As to `O=C(NCCc1cccnc1)c1cc([N+](=O)[O-])c(Sc2c(Cl)cncc2Cl)s1` [Example 108, 5-((3,5-dichloropyridin-4-yl)thio)-4-nitro-N-(2-(pyridin-3-yl)ethyl)thiophene-2-carboxamide], the pEC50 is ≥ 6.00.

`O=C(Nc1ccccc1Cl)c1cc([N+](=O)[O-])c(Sc2c(Cl)cncc2Cl)s1` [Example 134, N-(2-chlorophenyl)-5-((3,5-dichloropyridin-4-yl)thio)-4-nitrothiophene-2-carboxamide]: the negative-log EC50 (pEC50) was ≥ 6.00.

Consider `O=C(c1cccc([N+](=O)[O-])c1)c1cc([N+](=O)[O-])c(Sc2ccc(Cl)cc2Cl)s1` [Example 31, [5-(2,4-dichlorophenyl)sulfanyl-4-nitro-2-thienyl]-(3-nitrophenyl)methanone], for which the negative logarithm of the EC50 (pEC50) was < 5.00.

As for `O=C(c1cc([N+](=O)[O-])c(Sc2c(Cl)cncc2Cl)s1)N1CCN(CCO)CC1` [Example 61, (5-((3,5-dichloropyridin-4-yl)thio)-4-nitrothiophen-2-yl)(4-(2-hydroxyethyl)piperazin-1-yl)methanone], the pEC50 was 5.00 to 6.00.

For the compound `CCn1cnc(NC(=O)c2cc([N+](=O)[O-])c(Sc3c(Cl)cncc3Cl)s2)n1` [Example 186, 5-((3,5-dichloropyridin-4-yl)thio)-N-(1-ethyl-1H-1,2,4-triazol-3-yl)-4-nitrothiophene-2-carboxamide], the pEC50 was ≥ 6.00.

As to `CN1CCN(CCNC(=O)c2cc([N+](=O)[O-])c(Sc3c(Cl)cncc3Cl)s2)CC1` [Example 64, 5-((3,5-dichloropyridin-4-yl)thio)-N-(2-(4-methylpiperazin-1-yl)ethyl)-4-nitrothiophene-2-carboxamide], the negative logarithm of the EC50 (pEC50) is 5.00 to 6.00.

As to `CN1CCN(CCCNC(=O)c2cc([N+](=O)[O-])c(Sc3c(Cl)cncc3Cl)s2)CC1` [Example 65], the negative-log EC50 (pEC50) is 5.00 to 6.00.

Regarding `COC(=O)c1cc([N+](=O)[O-])c(Sc2c(F)cncc2F)s1` [Example 255, Methyl 5-((3,5-difluoropyridin-4-yl)thio)-4-nitrothiophene-2-carboxylate], the pEC50 is 5.00 to 6.00.

Take `CC(C)(C)OC(=O)CNC(=O)c1cc([N+](=O)[O-])c(Sc2c(Cl)cncc2Cl)s1` [Example 62, tert-butyl 2-(5-((3,5-dichloropyridin-4-yl)thio)-4-nitrothiophene-2-carboxamido)acetate]: the pEC50 is 5.00 to 6.00.

Consider `C[S+]([O-])CCCNC(=O)c1cc([N+](=O)[O-])c(Sc2c(Cl)cncc2Cl)s1` (stereo not shown) [Example 244, 5-((3,5-dichloropyridin-4-yl)thio)-N-(3-(methylsulfinyl)propyl)-4-nitrothiophene-2-carboxamide], for which the pEC50 was 5.00 to 6.00.

Regarding `O=C(c1cc([N+](=O)[O-])c(Sc2c(Cl)cncc2Cl)s1)N1CCCC(O)C1` (stereo not shown) [Example 83, (5-((3,5-dichloropyridin-4-yl)thio)-4-nitrothiophen-2-yl)(3-hydroxypiperidin-1-yl)methanone], the pEC50 is 5.00 to 6.00.

`CC(O)c1cc([N+](=O)[O-])c(Sc2cccc(Cl)c2Cl)s1` (stereo not shown) [Example 19, 1-[5-(2,3-dichlorophenyl)sulfanyl-4-nitro-2-thienyl]ethanol]: the pEC50 is < 5.00.
